For data set [1], the system named is Panel (10 carcinoma cell lines). The data set can be described thus: Inhibition of cell viability of panel of 10 cell lines (LCL H460, MACL MCF7, LXFL 529L, LXFA 629L, MEXF 462NL, MEXF 514L, MAXF 401NL, RXF 944L, RXF 486L, UXF 1138L) at 1 ug/mL. It is filed as functional. To be noted: Homo sapiens.
For data set [2], the system named is Panel (12 tumour cell lines). The data set can be described thus: Cytotoxicity against panel of 12 cell lines (LCL H460, MACL MCF7, LXFL 529L, LXFA 629L, MEXF 462NL, MEXF 514L, MAXF 401NL, RXF 944L, RXF 486L, UXF 1138L, PR PC3M, PRCL 22RV1). Type of data set: functional. As to conditions: Homo sapiens.
The subject of data set [3] is Mus musculus. The data set can be described thus: Toxicity in nude mouse xenografted with human UXF1138 at 3 mg/kg/day. It is filed as organism-based. To be noted: in vivo.
In data set [4] the test system is Mus musculus. The data set can be described thus: Toxicity in nude mouse xenografted with human UXF1138 at 1 mg/kg/day. It is filed as organism-based. To be noted: in vivo.
For data set [5], the system named is Mus musculus. Kind of data set: Decrease in body weight of nude mouse xenografted with human UXF1138 at 0.15 mg/kg/day, ip after 7 days. It is filed as functional. The arrangement: scale not given: the % may be the effect or the level left. As to conditions: route intraperitoneal.
For data set [6], the system named is Mus musculus. The data set can be described thus: Toxicity in nude mouse xenografted with human UXF1138 at 0.3 mg/kg/day. Type of data set: organism-based. To be noted: in vivo.
Data set [7] has as its system UXF1138. Kind of data set: Antitumor activity against human UXF1138 cell line xenografted in nude mouse at 0.15 mg/kg/day, ip after 7 days. As to conditions: route intraperitoneal.

Drawing on ChEMBL document CHEMBL1148509, “Design and semisynthesis of novel fredericamycin A derivatives with an improved antitumor profile” (Bioorg Med Chem Lett, 2006), this text covers inhibition, IC70 and Activity for 27 compounds.

`COC1=CC(=O)c2c(O)c3c(c(O)c2C1=O)C(=O)[C@]1(CCc2cc4cc(C(O)C(O)C(O)C(C)O)nc(O)c4c(O)c21)C3=O` (stereo partly drawn) returned an inhibition at 1 µg/mL in data set [1] of 85%. For the same compound, it took 186 nM to reach the 70% level in data set [2] (IC70).

Compound `COC1=CC(=O)c2c(O)c3c(c(O)c2C1=O)C(=O)[C@]1(CCc2c1c(O)c1c(O)nc(/C=C/c4csc(NC(C)=O)n4)cc1c2Br)C3=O` had an inhibition at 1 µg/mL in data set [1] of 83%. Further, the IC70 in data set [2] was found to be 512 nM. In the same order, the values of `COC1=CC(=O)c2c(O)c3c(c(O)c2C1=O)C(=O)[C@]1(CCc2c1c(O)c1c(O)nc(/C=N/OCc4ccccc4)cc1c2Br)C3=O` are 91% and 50 nM. On to `C/C=C/C=C/c1cc2c(Br)c3c(c(O)c2c(O)n1)[C@@]1(CC3)C(=O)c2c(O)c3c(c(O)c2C1=O)C(=O)C(OCC)=CC3=O`, for which, in data set [1], 1 µg/mL produced 97% inhibition. The same compound registered an IC70 in data set [2] of 160 nM. In turn, `COC1=CC(=O)c2c(O)c3c(c(O)c2C1=O)C(=O)[C@]1(CCc2c1c(O)c1c(O)nc(C=O)cc1c2Cl)C3=O` came in with an inhibition at 1 µg/mL in data set [1] of 25%.

The compound `C/C=C/C=C/c1cc2cc3c(c(O)c2c(O)n1)[C@@]1(CC3)C(=O)C2=C(C(=O)c3c(O)c(N(C)C)cc(O)c3C2=O)C1=O` registered an inhibition at 1 µg/mL in data set [1] of 96%. The compound further showed an IC70 in data set [2] of 306 nM. In the same order, the values of `C/C=C/C=C/c1cc2cc3c(c(O)c2c(O)n1)[C@@]1(CC3)C(=O)C2=C(C(=O)c3c(O)c(NC(C)C)cc(O)c3C2=O)C1=O` are 91% and 634 nM.

In data set [1], `COC1=CC(=O)c2c(O)c3c(c(O)c2C1=O)C(=O)[C@]1(CCc2c1c(O)c1c(O)nc(/C=N/N4CCN(C)CC4)cc1c2Br)C3=O` registered an inhibition at 1 µg/mL of 73%. Besides, in data set [2], the IC70 was 658 nM. In the same order, the values of `C/C=C/C=C/c1cc2cc3c(c(O)c2c(O)n1)[C@@]1(CC3)C(=O)C2=C(C(=O)c3c(O)c(N4CCOCC4)cc(O)c3C2=O)C1=O` are 98% and 77 nM. In the same order, the values of `COC1=CC(=O)c2c(O)c3c(c(O)c2C1=O)C(=O)[C@]1(CCc2c1c(O)c1c(O)nc(/C=N/OCCN4CCOCC4)cc1c2Br)C3=O` are 88% and 101 nM.

In data set [1], `COc1cccc2c1C(=O)c1c(O)c3c(c(O)c1C2=O)C[C@@](O)(C(=O)CO)C[C@@H]3O[C@H]1C[C@H](N)[C@H](O)[C@H](C)O1` [DOXORUBICIN] had an inhibition at 1 µg/mL of 91%. Also, it took 39 nM to reach the 70% level in data set [2] (IC70). Compound `C/C=C/C=C/c1cc2c(Br)c3c(c(O)c2c(O)n1)[C@@]1(CC3)C(=O)c2c(O)c3c(c(O)c2C1=O)C(=O)C(OC)=CC3=O` returned an inhibition at 1 µg/mL in data set [1] of 92%. In data set [2], the IC70 worked out at 8.1 nM. The like results for `COC1=CC(=O)c2c(O)c3c(c(O)c2C1=O)C(=O)[C@]1(CCc2c1c(O)c1c(O)nc(/C=C/c4csc(C)n4)cc1c2Br)C3=O` were, in that order, 85% and 124 nM. `C/C=C/C=C/c1cc2c(I)c3c(c(O)c2c(O)n1)[C@@]1(CC3)C(=O)c2c(O)c3c(c(O)c2C1=O)C(=O)C(OC)=CC3=O` came in with an inhibition at 1 µg/mL in data set [1] of 93%. Further, the IC70 in data set [2] came out at 11 nM. The Activity entry in data set [3] is on record as “Toxic”; in data set [4] it was “Toxic”; in data set [5] it was -3.1%; in data set [6], “Non-toxic”; in data set [7], 51%. In data set [1], `C/C=C/C=C/c1cc2c(F)c3c(c(O)c2c(O)n1)[C@@]1(CC3)C(=O)c2c(O)c3c(c(O)c2C1=O)C(=O)C(OC)=CC3=O` gave an inhibition at 1 µg/mL of 91%. This compound displayed an IC70 in data set [2] of 20 nM. On to `CC[C@@]1(O)C(=O)OCc2c1cc1n(c2=O)Cc2cc3ccccc3nc2-1` [CAMPTOTHECIN], for which the 70% effect level in data set [2] (IC70) was put at 8.6 nM. `COC1=CC(=O)c2c(O)c3c(c(O)c2C1=O)C(=O)[C@]1(CCc2cc4cc(C=O)nc(O)c4c(O)c21)C3=O`: the inhibition at 1 µg/mL in data set [1] turned out to be 31%. For the compound `COC1=CC(=O)c2c(O)c3c(c(O)c2C1=O)C(=O)[C@]1(CCc2c1c(O)c1c(O)nc(/C=N/OC(C)C)cc1c2Br)C3=O`, in data set [1], at 1 µg/mL the inhibition was 91%. In data set [2], this compound gave an IC70 of 74 nM.

On to `CC(=O)O[C@H]1C(=O)[C@@]2(C)[C@H]([C@H](OC(=O)c3ccccc3)[C@]3(O)C[C@H](OC(=O)[C@H](O)[C@@H](NC(=O)c4ccccc4)c4ccccc4)C(C)=C1C3(C)C)[C@]1(OC(C)=O)CO[C@@H]1C[C@@H]2O` [PACLITAXEL], for which it took 0.7 nM to reach the 70% level in data set [2] (IC70). For `C/C=C/C=C/c1cc2cc3c(c(O)c2c(=O)[nH]1)[C@@]1(CC3)C(=O)c2c(O)c3c(c(O)c2C1=O)C(=O)C(OC)=CC3=O` [FDM A], the inhibition at 1 µg/mL in data set [1] amounted to 82%. The compound also showed an IC70 in data set [2] of 517 nM. In data set [1], `COC1=CC(=O)c2c(O)c3c(c(O)c2C1=O)C(=O)[C@]1(CCc2c1c(O)c1c(O)nc(C=O)cc1c2Br)C3=O` gave an inhibition at 1 µg/mL of 42%. Consider `C/C=C/C=C/c1cc2c(Cl)c3c(c(O)c2c(O)n1)[C@@]1(CC3)C(=O)c2c(O)c3c(c(O)c2C1=O)C(=O)C(OC)=CC3=O`, for which the inhibition at 1 µg/mL in data set [1] turned out to be 91%. In data set [2], this compound returned an IC70 of 14 nM. The like results for `COC1=CC(=O)c2c(O)c3c(c(O)c2C1=O)C(=O)[C@]1(CCc2c1c(O)c1c(O)nc(/C=C/c4csc(N)n4)cc1c2Br)C3=O` were, in that order, 77% and 612 nM. Compound `COC1=CC(=O)c2c(O)c3c(c(O)c2C1=O)C(=O)[C@]1(CCc2cc4cc(/C=C/C(C)=O)nc(O)c4c(O)c21)C3=O` registered an inhibition at 1 µg/mL in data set [1] of 59%. `C/C=C/C=C/c1cc2cc3c(c(O)c2c(O)n1)[C@@]1(CC3)C(=O)C2=C(C(=O)c3c(O)c(OCCN(C)C)cc(O)c3C2=O)C1=O` showed an inhibition at 1 µg/mL in data set [1] of 94%. Besides, in data set [2], it took 1020 nM to reach the 70% level (IC70). The like results for `C/C=C/C=C/c1cc2c(Br)c3c(c(O)c2c(O)n1)[C@@]1(CC3)C(=O)C2=C(C(=O)c3c(O)c(NCCCC)cc(O)c3C2=O)C1=O` were, in that order, 94% and 302 nM. In the same order, the values of `C/C=C/C=C/c1cc2c(Br)c3c(c(O)c2c(O)n1)[C@@]1(CC3)C(=O)C2=C(C(=O)c3c(O)c(NC4CC4)cc(O)c3C2=O)C1=O` are 97% and 96 nM.
